≈ marks a conversion by molar mass, not a printed value.
Experiments:
[1] = system: pathogen in the urine; assay: Microbiological cure in patients with complicated urinary tract infections and pyelonephritis; format: in vivo, human; conditions: intravenous 800 mg once daily, composition with 0.01 M Tris, 17 days after start of treatment, cure = pathogen in urine ≤10^3 cfu/ml
Experimental: 4.3 Patients with complicated urinary tract infections and pyelonephritis were treated with an intravenous dose of 800 mg Finafloxacin once daily. 17 days after the start of the treatment the microbiological cure results were determined. Microbiological cure is defined as the reduction of the concentration of the pathogen in the urine to a titer of ≤10^3 cfu/ml. The finafloxacin composition comprising 0.01 M Tris caused an efficient eradication of the pathogens. The microbiological cure rate was 83%.

[2] = 2-week intravenous toxicological appraisal in rats; format: in vivo; conditions: 2 weeks, 60, 120 and 200 mg/kg/day, in 0.01 M Tris, 0.75% (w/v) sodium chloride, pH 8.5
From the text: The test article was formulated in 0.01 M Tris containing sodium chloride to 0.75% (w/v), adjusted in water for injection to pH 8.5.

[3] = Solubility of finafloxacin HCl in Tris, phosphate and pH-adjusted WfI (Example 1); format: physicochemical
Experimental: The solubility of finafloxacin, in form of its mono-hydrochloride salt, was tested at pH values between 7.3 and 9.0, using the following solutions: 0.01 M Tris: Water for injection 800 ml, Tris 1.21 g, sodium chloride 7.5 g, water for injection ad 1000 ml; pH was adjusted with HCl/NaOH. 0.025 M Phosphate: Water for injection 800 ml, sodium dihydrogen phosphate 1.950 g, disodium hydrogen phosphate 2.225 g, sodium chloride 7.5 g, water for injection ad 1000 ml; pH was adjusted with HCl/NaOH. WfI: Water for injection 900 ml, sodium chloride 7.5 g, water for injection ad 1000 ml; pH was adjusted with HCl/NaOH.

[4] = system: E. coli ATCC 25922; assay: Mouse intraperitoneal infection model, bacterial burden; format: in vivo; conditions: mice, composition with 0.01 M Tris, doses 4 and 12 hours post infection, burden 24 hours post infection
Experimental: 4.2 Mice were infected with 3.9×10^5 E. coli ATCC 25922 suspended in 1% porcine mucin administered by a 0.5 ml intraperitoneal injection. Antibacterial treatment with a finafloxacin composition comprising 0.01 M Tris was initiated 4 hours post infection with a second dose 12 hours post infection. The bacterial burden in the peritoneal fluid and blood culture was determined 24 hours post infection. Finafloxacin was effective at all doses with 1 mg/kg causing a reduction in burden of 3.1 log 10 cfu/g, finafloxacin administered at 3, 10 and 30 mg/kg were increasingly effective causing reductions of 4.4, 5.0 and 6.5 log 10 cfu/g, respectively.

[5] = system: E. coli 25922; assay: In vitro susceptibility test (MIC), finafloxacin composition with Tris; format: cell-based; conditions: Escherichia coli, composition at pH 8.0 containing 0.05 M Tris, read-out: minimal inhibitory concentration (MIC)
Experimental: (§1) The efficacy of finafloxacin compositions including Tris between pH 8.0-8.5 was examined and determined as follows:
(§2) 4.1 Bacteria were incubated in a finafloxacin composition at pH 8.0 containing 0.05 M Tris and the minimal inhibitory concentration (MIC) of finafloxacin, defined as the minimal finafloxacin concentration that inhibited the growth of the bacterium, was determined using a standard in vitro susceptibility test.

[6] = system: S. aureus 29213; assay: as above; format: cell-based; conditions: Staphylococcus aureus, composition at pH 8.0 containing 0.05 M Tris, read-out: minimal inhibitory concentration (MIC)
Experimental: as §1, §2

[7] = Stability of finafloxacin composition comprising Tris (Example 3); format: physicochemical; conditions: solution of 3.20 g/l finafloxacin, 7.80 g/l NaCl, 1.21 g/l Tris, pH 8.25, water for injection
From the text: The following composition was used to test the stability: [table]

[8] = Solubility of finafloxacin HCl in different concentrations of Tris solutions (Example 2); format: physicochemical
Experimental: 0.25 M Tris: Water for injection 800 ml, Tris 30.3 g, sodium chloride 7.5 g, water for injection ad 1000 ml; pH was adjusted with HCl/NaOH. 0.17 M Tris: Water for injection 800 ml, Tris 20.0 g, sodium chloride 7.5 g, water for injection ad 1000 ml; pH was adjusted with HCl/NaOH. 0.08 M Tris: Water for injection 800 ml, Tris 10.0 g, sodium chloride 7.5 g, water for injection ad 1000 ml; pH was adjusted with HCl/NaOH. […] In contrast to example 1 the pH was not re-adjusted after the stepwise addition of finafloxacin.

In the case of `N#Cc1c(N2C[C@@H]3NCCO[C@H]3C2)c(F)cc2c(=O)c(C(=O)O)cn(C3CC3)c12` [Finafloxacin, (−)-8-cyano-1-cyclopropyl-6-fluoro-7-[(4aS,7aS)-hexahydropyrrolo[3,4-b]-1,4-oxazin-6(2H)-yl]-4-oxo-1,4-dihydroquinoline-3-carboxylic acid], the microbiological cure rate [1] is reported as 83%, the tolerability [2] is reported as “generally well tolerated” and the increase in solubility ([3]; 0.01 M Tris versus WfI and phosphate buffer) is reported as 3-4 fold. For the same compound, the reduction in burden ([4]; 1 mg/kg) was 3.1 log 10 cfu/g, the reduction in burden ([4]; 3 mg/kg) was 4.4 log 10 cfu/g and the reduction in burden ([4]; 10 mg/kg) was 5.0 log 10 cfu/g. It also gave a reduction in burden ([4]; 30 mg/kg) of 6.5 log 10 cfu/g, an MIC [5] of 0.25 mg/L (≈ 0.628 µM) and an MIC [6] of 0.5 mg/L (≈ 1.26 µM). The long term stability [7] was “at least 24 months”.

`Cl.N#Cc1c(N2C[C@@H]3NCCO[C@H]3C2)c(F)cc2c(=O)c(C(=O)O)cn(C3CC3)c12` [Finafloxacin HCl] showed a solubility ([3]; 0.01 M Tris, pH 7.5, pH re-adjusted) of 6.0 mg/mL, a solubility ([3]; 0.01 M Tris, pH 8.0, pH re-adjusted) of 15.0 mg/mL and a solubility ([3]; 0.01 M Tris, pH 8.5, pH re-adjusted) greater than 28 mg/mL. It also gave a solubility ([3]; 0.01 M Tris, pH 9.0, pH re-adjusted) greater than 28 mg/mL, a solubility ([3]; 0.025 M Phosphate, pH 7.5, pH re-adjusted) of 2.0 mg/mL and a solubility ([3]; 0.025 M Phosphate, pH 8.0, pH re-adjusted) of 4.0 mg/mL. The solubility ([3]; 0.025 M Phosphate, pH 8.5, pH re-adjusted) was 6.0 mg/mL, the solubility ([3]; 0.025 M Phosphate, pH 9.0, pH re-adjusted) was 8.0 mg/mL and the solubility ([3]; pH-adjusted WfI, pH 7.5) was 2.0 mg/mL. The solubility ([3]; pH-adjusted WfI, pH 8.0) was 4.0 mg/mL, the solubility ([3]; pH-adjusted WfI, pH 8.5) was 6.0 mg/mL and the solubility ([3]; pH-adjusted WfI, pH 9.0) was 6.0 mg/mL. For the same compound, the solubility ([8]; 0.08 M Tris, pH 7.8, pH not re-adjusted) was 4.0 mg/mL, the solubility ([8]; 0.08 M Tris, pH 8.2, pH not re-adjusted) was 6.0 mg/mL and the solubility ([8]; 0.08 M Tris, pH 8.6, pH not re-adjusted) was 9.0 mg/mL. It also gave a solubility ([8]; 0.08 M Tris, pH 9.0, pH not re-adjusted) of 10.0 mg/mL, a solubility ([8]; 0.17 M Tris, pH 7.4, pH not re-adjusted) of 2.0 mg/mL and a solubility ([8]; 0.17 M Tris, pH 7.8, pH not re-adjusted) of 6.0 mg/mL. It also gave a solubility ([8]; 0.17 M Tris, pH 8.2, pH not re-adjusted) of 10.0 mg/mL, a solubility ([8]; 0.17 M Tris, pH 8.6, pH not re-adjusted) of 19.0 mg/mL and a solubility ([8]; 0.17 M Tris, pH 9.0, pH not re-adjusted) of 23.0 mg/mL. For the same compound, the solubility ([8]; 0.25 M Tris, pH 7.4, pH not re-adjusted) was 2.0 mg/mL, the solubility ([8]; 0.25 M Tris, pH 7.8, pH not re-adjusted) was 8.0 mg/mL and the solubility ([8]; 0.25 M Tris, pH 8.2, pH not re-adjusted) was 15.0 mg/mL. It also gave a solubility ([8]; 0.25 M Tris, pH 8.6, pH not re-adjusted) of 24.0 mg/mL and a solubility ([8]; 0.25 M Tris, pH 9.0, pH not re-adjusted) of 28.0 mg/mL.
